According to PMC6832265 (Molecules, 2019):

Legend:
[1] = biological target: T1, recombinant Tdp1 (residues 149–608) (Homo sapiens, UniProt Q9NUW8); experiment: Intrinsic tryptophan fluorescence quenching binding assay; conditions: 10 µM Tdp1, 20 mM Tris, 250 mM NaCl, pH 8; triplicate
T1 construct: recombinant Tdp1 (residues 149–608) was obtained from GenScript; host or cells: E. coli BL21(DE3)
Procedure: The binding of the synthesized compounds to recombinant Tdp1 was also tested (Table 1 and Table 2) by using an intrinsic tryptophan fluorescence quenching assay. […] As our compounds are aromatic in nature, there is a possibility that they may bind to both the active site as well as non-specifically to the DNA/peptide binding pockets. Nonetheless, our results confirmed that the compounds were indeed binders of Tdp1, thus complementing our inhibition data.
pET-28a(+) plasmid encoding recombinant Tdp1 (residues 149–608) was obtained from GenScript. E. coli BL21(DE3) was used for recombinant protein production. Protein production was induced with 1 mM IPTG at 28 °C with overnight incubation. Tdp1 was purified using affinity and size exclusion chromatography. Fluorescence was measured using a PerkinElmer EnSpire Multimode Reader. Tdp1 concentration was 10 μM with varying compound concentrations. The buffer was 20 mM Tris and 250 mM NaCl (pH 8). The excitation wavelength was 280 nm and intrinsic fluorescence was measured at 350 nm. Control experiments with Tdp1 or the compound on its own were also conducted. Background fluorescence arising from the compounds was subtracted from the final spectrum. The total volume per well was 30 μL. The dissociation constant (KD) was calculated using Equation (1), which takes non-specific binding into account. y = Bmaxx/(KD + x) + Nsx(1) where y denotes the changes in fluorescence intensity; x denotes the concentration of the compounds; Bmax denotes the maximum changes in fluorescence intensity; and Ns is a scaling factor for non-specific binding. Experiments were conducted in triplicate.

Tdp1 = biological target: T2, Tdp1 (Homo sapiens, UniProt Q9NUW8); experiment: Real-time detection of Tdp1 activity (5'-FAM/3'-BHQ1 oligonucleotide biosensor); assay type: biochemical; conditions: 1.5 nM Tdp1, 50 nM oligonucleotide substrate, 26 °C
T2 construct: made in house; host or cells: Escherichia coli
Description: We first studied the inhibition potency of our compounds to Tdp1 by using a real-time oligonucleotide biosensor assay that we have previously developed. The assay was based on the ability of Tdp1 to remove the fluorescence quencher from the 3’-end of DNA. The substrate is a 16-mer single-stranded oligonucleotide containing both a 5’-FAM fluorophore and a 3’-BHQ1 quencher.
A fluorophore quencher-coupled DNA-biosensor for real-time measurement of Tdp1 cleavage activity was recently designed in our laboratory. The biosensor is a 16-mer single-stranded oligonucleotide containing both a 5’-FAM fluorophore donor and a quenching 3’-BHQ1 moiety.
Recombinant protein Tdp1 was expressed in EsCherichia coli (pET 16B plasmid containing Tdp1 cDNA provided by Dr. K.W. Caldecott, University of Sussex, United Kingdom) and isolated as described. The reaction mixture in a final volume 200 μL contained Tdp1 reaction buffer (50 mM Tris-HCl, 50 mM NaCl, 7 mM β-mercaptoethanol), 50 nM oligonucleotide substrate, and varied concentrations of potential inhibitor. Purified Tdp1 was added in a final concentration of 1.5 nM.
The reaction mixtures were incubated at a constant temperature of 26 °C in a POLARstar OPTIMA fluorimeter, BMG LABTECH, GmbH, to measure fluorescence intensity every minute (Ex485/Em520 nm). Tdp1 inhibition was calculated by comparing the rate of increase in fluorescence of the biosensor in the presence of the compound to that of DMSO (1.5%) control wells. The measurements were carried out in at least two independent experiments. IC50 values were determined using a six-point concentration response curve. The data were imported into the MARS Data Analysis 2.0 program (BMG LABTECH) and the slope during the linear phase (data from 0 to 7 min) was calculated.

T2 sequence (Q9NUW8 whole entry): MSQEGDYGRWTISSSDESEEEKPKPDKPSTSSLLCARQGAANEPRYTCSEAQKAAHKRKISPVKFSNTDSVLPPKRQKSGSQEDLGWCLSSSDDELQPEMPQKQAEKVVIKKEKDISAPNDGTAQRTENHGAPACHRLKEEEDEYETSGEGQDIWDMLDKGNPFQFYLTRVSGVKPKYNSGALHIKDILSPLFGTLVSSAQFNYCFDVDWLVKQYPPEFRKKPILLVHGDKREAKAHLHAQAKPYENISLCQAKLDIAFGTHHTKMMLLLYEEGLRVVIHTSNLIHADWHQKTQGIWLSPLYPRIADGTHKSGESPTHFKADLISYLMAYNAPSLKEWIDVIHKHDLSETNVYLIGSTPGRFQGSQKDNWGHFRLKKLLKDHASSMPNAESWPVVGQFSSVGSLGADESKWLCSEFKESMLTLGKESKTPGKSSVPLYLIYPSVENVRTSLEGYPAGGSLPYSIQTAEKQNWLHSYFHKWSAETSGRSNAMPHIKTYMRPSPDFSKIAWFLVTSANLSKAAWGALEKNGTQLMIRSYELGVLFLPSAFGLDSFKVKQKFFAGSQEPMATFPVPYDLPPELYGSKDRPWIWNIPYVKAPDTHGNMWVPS
T1 sequence (Q9NUW8 149-608): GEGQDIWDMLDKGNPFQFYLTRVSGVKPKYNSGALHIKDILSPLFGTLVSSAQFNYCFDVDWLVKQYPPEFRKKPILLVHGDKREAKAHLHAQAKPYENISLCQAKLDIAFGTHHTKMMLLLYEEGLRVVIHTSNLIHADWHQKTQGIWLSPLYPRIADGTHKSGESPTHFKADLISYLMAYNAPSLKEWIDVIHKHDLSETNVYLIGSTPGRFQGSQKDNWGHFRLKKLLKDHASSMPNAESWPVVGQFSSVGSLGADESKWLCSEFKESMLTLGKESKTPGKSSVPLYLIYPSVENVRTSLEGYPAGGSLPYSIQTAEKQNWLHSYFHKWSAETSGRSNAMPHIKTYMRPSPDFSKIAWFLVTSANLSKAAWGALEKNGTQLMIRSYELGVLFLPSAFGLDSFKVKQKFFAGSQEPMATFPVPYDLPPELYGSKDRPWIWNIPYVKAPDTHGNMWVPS

`CC(=O)C1=C(O)C=C2Oc3c(-c4csc(N/N=C/c5ccc[nH]5)n4)c(O)c(C)c(O)c3[C@]2(C)C1=O` [(−)-16m, (2S)-4-Acetyl-5,11,13-trihydroxy-2,12-dimethyl-10-{2-[(E)-2-[(1H-pyrrol-2-yl)methylidene] hydrazin-1-yl]-1,3-thiazol-4-yl}-8-oxatricyclo[7.4.0.0^2,7]trideca-1(9),4,6,10,12-pentaen-3-one] was tested, and the Kd [1] was 354000 ± 40000 nM and the IC50 (Tdp1) was 18 ± 1 nM.
Work on “(2S)-4-Acetyl-10-{2-[(E)-2-({3-[(3,4-difluorophenoxy)methyl]-4-methoxyphenyl}methylidene)hydrazin-1-yl]-1,3-thiazol-4-yl}-5,11,13-trihydroxy-2,12-dimethyl-8-oxatricyclo[7.4.0.0^2,7]trideca-1(9),4,6,10,12-pentaen-3-one [(−)-17e]” yielded a Kd [1] of 130000 ± 8000 nM and an IC50 (Tdp1) of 30 ± 11 nM.
For `COc1ccc(/C=N/Nc2nc(-c3c(O)c(C)c(O)c4c3OC3=CC(O)=C(C(C)=O)C(=O)[C@]34C)cs2)cc1COc1ccccc1F` [(−)-17c, (2S)-4-Acetyl-10-{2-[(E)-2-({3-[(2-fluorophenoxy)methyl]-4-methoxyphenyl}methylidene)hydrazin-1-yl]-1,3-thiazol-4-yl}-5,11,13-trihydroxy-2,12-dimethyl-8-oxatricyclo[7.4.0.0^2,7]trideca-1(9),4,6,10,12-pentaen-3-one], the Kd [1] was 74000 ± 4000 nM and the IC50 (Tdp1) was 37 ± 10 nM.
Work on `CC(=O)C1=C(O)C=C2Oc3c(-c4csc(N/N=C/c5cnc[nH]5)n4)c(O)c(C)c(O)c3[C@@]2(C)C1=O` [(+)-16o, 5-[(1E)-(2-{4-[(1R)-12-Acetyl-3,5,11-trihydroxy-1,4-dimethyl-13-oxo-8-oxatricyclo[7.4.0.0^2,7]trideca-2(7),3,5,9,11-pentaen-6-yl]-1,3-thiazol-2-yl}hydrazin-1-ylidene)methyl]-1H-imidazol-1-ium bromide] yielded a Kd [1] of 38000 ± 2000 nM and an IC50 (Tdp1) of 1690 ± 890 nM.
In the case of `CC(=O)C1=C(O)C=C2Oc3c(-c4csc(N/N=C/c5ccc(-c6cccc(Cl)c6)o5)n4)c(O)c(C)c(O)c3[C@@]2(C)C1=O` [(+)-16r, (2R)-4-Acetyl-10-{2-[(E)-2-{[5-(3-chlorophenyl)furan-2-yl]methylidene}hydrazin-1-yl]-1,3-thiazol-4-yl}-5,11,13-trihydroxy-2,12-dimethyl-8-oxatricyclo[7.4.0.0^2,7]trideca-1(9),4,6,10,12-pentaen-3-one], the Kd [1] is reported as 113000 ± 52000 nM and the IC50 (Tdp1) is reported as 55 ± 8 nM.
Work on “(2S)-4-Acetyl-5,11,13-trihydroxy-2,12-dimethyl-10-{2-[(E)-2-[(thiophen-3-yl)methylidene] hydrazin-1-yl]-1,3-thiazol-4-yl}-8-oxatricyclo[7.4.0.0^2,7]trideca-1(9),4,6,10,12-pentaen-3-one amine [(−)-16j]” yielded a Kd [1] of 771000 ± 46000 nM and an IC50 (Tdp1) of 40 ± 3 nM.
`CC(=O)C1=C(O)C=C2Oc3c(-c4csc(N/N=C/c5cc(Br)cs5)n4)c(O)c(C)c(O)c3[C@]2(C)C1=O` [(−)-16h, (2S)-4-Acetyl-5,11,13-trihydroxy-2,12-dimethyl-10-{2-[(E)-2-[(4-bromothiophen-2-yl)methylidene]hydrazin-1-yl]-1,3-thiazol-4-yl}-8-oxatricyclo[7.4.0.0^2,7]trideca-1(9),4,6,10,12-pentaen-3-one] was tested, and the Kd [1] was 355000 ± 50000 nM and the IC50 (Tdp1) was 56 ± 4 nM.
With `COc1ccc(/C=N/Nc2nc(-c3c(O)c(C)c(O)c4c3OC3=CC(O)=C(C(C)=O)C(=O)[C@@]34C)cs2)cc1CSc1cc(C)ccc1C(C)(C)C` [(+)-17g, (2R)-4-Acetyl-10-{2-[(E)-2-[(3-{[(2-tert-butyl-5-methylphenyl)sulfanyl]methyl}-4-methoxyphenyl)methylidene]hydrazin-1-yl]-1,3-thiazol-4-yl}-5,11,13-trihydroxy-2,12-dimethyl-8-oxatricyclo[7.4.0.0^2,7]trideca-1(9),4,6,10,12-pentaen-3-one] the Kd [1] was 223000 ± 42000 nM and the IC50 (Tdp1) was 122 ± 25 nM.
For `CC(=O)C1=C(O)C=C2Oc3c(-c4csc(N/N=C/c5c[nH]c6ccccc56)n4)c(O)c(C)c(O)c3[C@@]2(C)C1=O` [(+)-16p, (2R)-4-Acetyl-5,11,13-trihydroxy-2,12-dimethyl-10-{2-[(E)-2-[(1H-indole-3-yl)methylidene] hydrazin-1-yl]-1,3-thiazol-4-yl}-8-oxatricyclo[7.4.0.0^2,7]trideca-1(9),4,6,10,12-pentaen-3-one], the Kd [1] was 268000 ± 11000 nM and the IC50 (Tdp1) was 138 ± 3 nM.
In the case of “(2S)-4-Acetyl-5,11,13-trihydroxy-2,12-dimethyl-10-{2-[(E)-2-[(1H-3-methyl-indole-3-yl) methylidene]hydrazin-1-yl]-1,3-thiazol-4-yl}-8-oxatricyclo[7.4.0.0^2,7]trideca-1(9),4,6,10,12-pentaen-3-one [(−)-16q]”, the Kd [1] is reported as 58000 ± 4000 nM and the IC50 (Tdp1) is reported as 81 ± 20 nM.
Compound `COc1ccc(/C=N/Nc2nc(-c3c(O)c(C)c(O)c4c3OC3=CC(O)=C(C(C)=O)C(=O)[C@@]34C)cs2)cc1COc1ccc(Cl)c(C)c1` [(+)-17h, (2R)-4-Acetyl-10-{2-[(E)-2-({3-[(4-chloro-3-methylphenoxy)methyl]-4-methoxyphenyl}methylidene)hydrazin-1-yl]-1,3-thiazol-4-yl}-5,11,13-trihydroxy-2,12-dimethyl-8-oxatricyclo[7.4.0.0^2,7]trideca-1(9),4,6,10,12-pentaen-3-one] has a Kd [1] of 188000 ± 22000 nM and an IC50 (Tdp1) of 74 ± 1 nM.
With `CC(=O)C1=C(O)C=C2Oc3c(-c4csc(N/N=C/c5sccc5C)n4)c(O)c(C)c(O)c3[C@@]2(C)C1=O` [(+)-16i, (2R)-4-Acetyl-5,11,13-trihydroxy-2,12-dimethyl-10-{2-[(E)-2-[(3-methylthiophen-2-yl)methylidene]hydrazin-1-yl]-1,3-thiazol-4-yl}-8-oxatricyclo[7.4.0.0^2,7]trideca-1(9),4,6,10,12-pentaen-3-one] the IC50 (Tdp1) was 72 ± 3 nM.
Work on `CC(=O)C1=C(O)C=C2Oc3c(-c4csc(N/N=C/c5ccc(C)s5)n4)c(O)c(C)c(O)c3[C@]2(C)C1=O` [(−)-16e, (2S)-4-Acetyl-5,11,13-trihydroxy-2,12-dimethyl-10-{2-[(E)-2-[(5-methylthiophen-2-yl)methylidene]hydrazin-1-yl]-1,3-thiazol-4-yl}-8-oxatricyclo[7.4.0.0^2,7]trideca-1(9),4,6,10,12-pentaen-3-one] yielded an IC50 (Tdp1) of 54 ± 25 nM.
`CC(=O)C1=C(O)C=C2Oc3c(-c4csc(N/N=C/c5c[nH]c6ccccc56)n4)c(O)c(C)c(O)c3[C@]2(C)C1=O` [(−)-16p, (2S)-4-Acetyl-5,11,13-trihydroxy-2,12-dimethyl-10-{2-[(E)-2-[(1H-indole-3-yl)methylidene] hydrazin-1-yl]-1,3-thiazol-4-yl}-8-oxatricyclo[7.4.0.0^2,7]trideca-1(9),4,6,10,12-pentaen-3-one] gave an IC50 (Tdp1) of 57 ± 1 nM.
Compound `COc1ccc(/C=N/Nc2nc(-c3c(O)c(C)c(O)c4c3OC3=CC(O)=C(C(C)=O)C(=O)[C@]34C)cs2)cc1COc1ccc(F)cc1` [(−)-17a, (2S)-4-Acetyl-10-{2-[(E)-2-({3-[(4-fluorophenoxy)methyl]-4-methoxyphenyl}methylidene)hydrazin-1-yl]-1,3-thiazol-4-yl}-5,11,13-trihydroxy-2,12-dimethyl-8-oxatricyclo[7.4.0.0^2,7]trideca-1(9),4,6,10,12-pentaen-3-one] has an IC50 (Tdp1) of 54 ± 3 nM.
Compound `CC(=O)C1=C(O)C=C2Oc3c(-c4csc(N/N=C/c5sccc5C)n4)c(O)c(C)c(O)c3[C@]2(C)C1=O` [(−)-16i, (2S)-4-Acetyl-5,11,13-trihydroxy-2,12-dimethyl-10-{2-[(E)-2-[(3-methylthiophen-2-yl)methylidene]hydrazin-1-yl]-1,3-thiazol-4-yl}-8-oxatricyclo[7.4.0.0^2,7]trideca-1(9),4,6,10,12-pentaen-3-one] has an IC50 (Tdp1) of 121 ± 25 nM.
Compound `CC(=O)C1=C(O)C=C2Oc3c(-c4csc(N/N=C/c5ccc(-c6cccc(Cl)c6)o5)n4)c(O)c(C)c(O)c3[C@]2(C)C1=O` [(−)-16r, (2S)-4-Acetyl-10-{2-[(E)-2-{[5-(3-chlorophenyl)furan-2-yl]methylidene}hydrazin-1-yl]-1,3-thiazol-4-yl}-5,11,13-trihydroxy-2,12-dimethyl-8-oxatricyclo[7.4.0.0^2,7]trideca-1(9),4,6,10,12-pentaen-3-one] has an IC50 (Tdp1) of 53 ± 3 nM.
